{"source": "patent US20050244335A1", "about": "“Methods and compositions related to increasing antitumor activity of chemotherapeutic agents” (priority 2004, published 2005)", "key": {"[1]": {"tested_on": "human breast cancer MDA-MB-468 xenografts", "test": "In vivo chemotherapy, breast cancer MDA-MB-468 xenograft model in nude mice", "conditions": "MDA-MB-468 model; agent alone", "description": "Cell Culture. […] All media contained 1% penicillin-streptomycin.\n(§1) Data and Statistical Analysis."}, "[2]": {"test": "Pharmacokinetics of carboplatin in nude mice bearing LS174T xenografts", "assay_type": "in vivo", "conditions": "for AUC / CL / Cmax / T1/2 / Vss: nude mice bearing LS174T xenografts, carboplatin 60 mg/kg iv", "procedure": "Pharmacokinetics and Tissue Distribution of Carboplatin. Pharmacokinetic studies were carried out using a protocol similar to that previously described (26) using metabolism cages. Female nude mice bearing human colon cancer LS174T xenografts or human lung cancer A549 xenografts were used (3 animals for each time point). Animals were pre-treated with DEX (s.c., 0.1 mg/day/mouse for 5 days) or saline (as controls) and, at 1 hr after the fifth dose of DEX, were given a single intravenously (i.v.) bolus administration of carboplatin (60 mg/kg) via a tail vein. At various times (5, 15, and 30 min, 1, 2, 4, 8, and 24 hr after carboplatin dosing), blood samples were collected in heparinized tubes and tissue samples removed. Plasma was separated by centrifugation at 20,000 g for 5 min. Tissues including liver, kidneys, spleen, and tumor were taken at various times and immediately blotted on Whatman No. 1 filter paper, trimmed of extraneous fat or connective tissue, weighed, and homogenized in 0.9% NaCl physiological saline (5 mL per gram of wet weight). The resultant homogenates were stored at −70° C. until further analysis. Bone marrow cells were harvested by flushing the femurs with sterile physiological saline as reported previously (30). Briefly, after removing the distal and proximal ends of femur, each end of the bone was punctured with a 20-gauge needle fitted with a 5 mL syringe containing 1 mL of sterile physiological saline (pre-weighed). The bone was then held with a forceps over a test tube and the needle was inserted into the hole in the proximal end. The 1 mL saline was flushed through the bone into the tube by applying gentle, steady pressure to the plunger. The syringe was then filled with 5 ml of air that was gently forced through the bone to remove the remaining saline and bone marrow in the shaft. The resultant bone marrow cell suspension was weighed and lysed by sonicating 5 times for periods of 10 sec. Following centrifugation at 20,000 g for 30 min, the supernatant was removed and stored at −70° C. until further analysis.\nHPLC Analysis of Carboplatin in Plasma and Tissues. Carboplatin in biological samples was analyzed by an analytical procedure involving micro-filtration and reversed-phase HPLC (31). 200 μL of plasma or tissue homogenates or bone marrow suspension was added to the reservoir of a Centrifree™ micropartition system. The latter was capped and centrifuged at 2,000 g for 5 min. All filtrates were transferred into a new micro centrifuge tube and 6 μL of the filtrates was injected onto the HPLC column. The HPLC system consisted of a Hewlett Packard 1050 ChemStation with a UV detector (Agilent 1050 series). Determination of Carboplatin was achieved using a LiChrosorb™ diol (10 μm, 250×4.6 mm) analytical column with a LiChroCART 100 RP-18 guard column. The mobile phase for plasma was composed of 98:2 acetonitrile:H2O (vol/vol) and 89:11 acetonitrile: 0.015% H3PO4 (vol/vol) for urine and tissue samples. The flow rates were 2 mL/min (for plasma) and 1.1 mL/min (for urine and tissue samples). The column elute was monitored by UV at 229 nm. Quantitation of plasma or tissue carboplatin was carried out by using an external standard curve (0-4,000.0 μg/mL) that was freshly prepared on a daily basis. Linear regression and correlation analysis were carried out to establish the standard peak-area/concentration curves for carboplatin.\nas §1"}, "[3]": {"conditions": "LS174T nude mice, without DEX treatment"}}}
{"smiles": "N.N.O=C([O-])C1(C(=O)[O-])CCC1.[Pt+2]", "note": "[carboplatin]", "values": [{"measurement": "effect on tumor growth", "setting": "[1]", "result": "no effects on tumor growth"}, {"measurement": "decrease in tumor Clearance by DEX pretreatment", "setting": "[2]; LS174T nude mice", "result": 160, "unit": "%"}, {"measurement": "increase in tumor AUC by DEX pretreatment", "setting": "[2]; LS174T nude mice", "result": 200, "unit": "%"}, {"measurement": "increase in tumor Cmax by DEX pretreatment", "setting": "[2]; LS174T nude mice", "result": 100, "unit": "%"}, {"measurement": "tumor AUC relative to bone marrow AUC", "setting": "[2]; [3]", "result": 3, "unit": "%"}, {"measurement": "tumor AUC relative to liver AUC", "setting": "[2]; [3]", "result": 23, "unit": "%"}, {"measurement": "tumor AUC relative to spleen AUC", "setting": "[2]; [3]", "result": 4, "unit": "%"}, {"measurement": "AUC", "setting": "[2]; bone marrow, DEX (+)", "result": 269.71, "unit": "µg·h/mL"}, {"measurement": "CL", "setting": "[2]; bone marrow, DEX (+)", "result": 0.22, "unit": "mL/g/h"}, {"measurement": "Cmax", "setting": "[2]; bone marrow, DEX (+)", "result": 22.56, "unit": "µg/mL"}, {"measurement": "T1/2", "setting": "[2]; bone marrow, DEX (+)", "result": 410, "unit": "min"}, {"measurement": "Vss", "setting": "[2]; bone marrow, DEX (+)", "result": 2.17, "unit": "mL/g"}, {"measurement": "AUC", "setting": "[2]; bone marrow, DEX (−)", "result": 411.27, "unit": "µg·h/mL"}, {"measurement": "CL", "setting": "[2]; bone marrow, DEX (−)", "result": 0.15, "unit": "mL/g/h"}, {"measurement": "Cmax", "setting": "[2]; bone marrow, DEX (−)", "result": 23.36, "unit": "µg/mL"}, {"measurement": "T1/2", "setting": "[2]; bone marrow, DEX (−)", "result": 669.6, "unit": "min"}, {"measurement": "Vss", "setting": "[2]; bone marrow, DEX (−)", "result": 2.42, "unit": "mL/g"}, {"measurement": "AUC", "setting": "[2]; liver, DEX (+)", "result": 42.45, "unit": "µg·h/mL"}, {"measurement": "CL", "setting": "[2]; liver, DEX (+)", "result": 1.41, "unit": "mL/g/h"}, {"measurement": "Cmax", "setting": "[2]; liver, DEX (+)", "result": 19.41, "unit": "µg/mL"}, {"measurement": "T1/2", "setting": "[2]; liver, DEX (+)", "result": 33.6, "unit": "min"}, {"measurement": "Vss", "setting": "[2]; liver, DEX (+)", "result": 1.14, "unit": "mL/g"}, {"measurement": "AUC", "setting": "[2]; liver, DEX (−)", "result": 51.52, "unit": "µg·h/mL"}, {"measurement": "CL", "setting": "[2]; liver, DEX (−)", "result": 1.16, "unit": "mL/g/h"}, {"measurement": "Cmax", "setting": "[2]; liver, DEX (−)", "result": 26.97, "unit": "µg/mL"}, {"measurement": "T1/2", "setting": "[2]; liver, DEX (−)", "result": 29.4, "unit": "min"}, {"measurement": "Vss", "setting": "[2]; liver, DEX (−)", "result": 0.82, "unit": "mL/g"}, {"measurement": "AUC", "setting": "[2]; plasma, DEX (+)", "result": 43.16, "unit": "µg·h/mL"}, {"measurement": "CL", "setting": "[2]; plasma, DEX (+)", "result": 1.39, "unit": "mL/g/h"}, {"measurement": "Cmax", "setting": "[2]; plasma, DEX (+)", "result": 280.80, "unit": "µg/mL"}, {"measurement": "T1/2", "setting": "[2]; plasma, DEX (+)", "result": 6.6, "unit": "min"}, {"measurement": "Vss", "setting": "[2]; plasma, DEX (+)", "result": 0.21, "unit": "mL/g"}, {"measurement": "AUC", "setting": "[2]; plasma, DEX (−)", "result": 44.51, "unit": "µg·h/mL"}, {"measurement": "CL", "setting": "[2]; plasma, DEX (−)", "result": 1.35, "unit": "mL/g/h"}, {"measurement": "Cmax", "setting": "[2]; plasma, DEX (−)", "result": 375.27, "unit": "µg/mL"}, {"measurement": "T1/2", "setting": "[2]; plasma, DEX (−)", "result": 4.8, "unit": "min"}, {"measurement": "Vss", "setting": "[2]; plasma, DEX (−)", "result": 0.16, "unit": "mL/g"}, {"measurement": "AUC", "setting": "[2]; spleen, DEX (+)", "result": 0.48, "unit": "µg·h/mL"}, {"measurement": "CL", "setting": "[2]; spleen, DEX (+)", "result": 126.35, "unit": "mL/g/h"}, {"measurement": "Cmax", "setting": "[2]; spleen, DEX (+)", "result": 9.44, "unit": "µg/mL"}, {"measurement": "T1/2", "setting": "[2]; spleen, DEX (+)", "result": 2.4, "unit": "min"}, {"measurement": "Vss", "setting": "[2]; spleen, DEX (+)", "result": 6.36, "unit": "mL/g"}, {"measurement": "AUC", "setting": "[2]; spleen, DEX (−)", "result": 353.36, "unit": "µg·h/mL"}, {"measurement": "CL", "setting": "[2]; spleen, DEX (−)", "result": 0.17, "unit": "mL/g/h"}, {"measurement": "Cmax", "setting": "[2]; spleen, DEX (−)", "result": 24.20, "unit": "µg/mL"}, {"measurement": "T1/2", "setting": "[2]; spleen, DEX (−)", "result": 595, "unit": "min"}, {"measurement": "Vss", "setting": "[2]; spleen, DEX (−)", "result": 2.43, "unit": "mL/g"}, {"measurement": "AUC", "setting": "[2]; tumor, DEX (+)", "result": 33.54, "unit": "µg·h/mL"}, {"measurement": "CL", "setting": "[2]; tumor, DEX (+)", "result": 1.79, "unit": "mL/g/h"}, {"measurement": "Cmax", "setting": "[2]; tumor, DEX (+)", "result": 89.80, "unit": "µg/mL"}, {"measurement": "T1/2", "setting": "[2]; tumor, DEX (+)", "result": 15.6, "unit": "min"}, {"measurement": "Vss", "setting": "[2]; tumor, DEX (+)", "result": 0.67, "unit": "mL/g"}, {"measurement": "AUC", "setting": "[2]; tumor, DEX (−)", "result": 12.79, "unit": "µg·h/mL"}, {"measurement": "CL", "setting": "[2]; tumor, DEX (−)", "result": 4.69, "unit": "mL/g/h"}, {"measurement": "Cmax", "setting": "[2]; tumor, DEX (−)", "result": 44.16, "unit": "µg/mL"}, {"measurement": "T1/2", "setting": "[2]; tumor, DEX (−)", "result": 12, "unit": "min"}, {"measurement": "Vss", "setting": "[2]; tumor, DEX (−)", "result": 1.36, "unit": "mL/g"}]}
